The values that follow come from ChEMBL document CHEMBL1201862, “PubChem BioAssay data set” (2004).

Activity calls are given as the source filed them.

The nature of assay [1]: Luminescence-based cell-based high throughput dose response assay to identify activators of the DAF-12 from the parasite S. stercoralis (ssDAF-12). Type of assay: functional.
Assay [2] concerns the target T1, Oxysterols receptor LXR-beta (Homo sapiens, UniProt P55055).
T1 sequence (P55055 whole entry): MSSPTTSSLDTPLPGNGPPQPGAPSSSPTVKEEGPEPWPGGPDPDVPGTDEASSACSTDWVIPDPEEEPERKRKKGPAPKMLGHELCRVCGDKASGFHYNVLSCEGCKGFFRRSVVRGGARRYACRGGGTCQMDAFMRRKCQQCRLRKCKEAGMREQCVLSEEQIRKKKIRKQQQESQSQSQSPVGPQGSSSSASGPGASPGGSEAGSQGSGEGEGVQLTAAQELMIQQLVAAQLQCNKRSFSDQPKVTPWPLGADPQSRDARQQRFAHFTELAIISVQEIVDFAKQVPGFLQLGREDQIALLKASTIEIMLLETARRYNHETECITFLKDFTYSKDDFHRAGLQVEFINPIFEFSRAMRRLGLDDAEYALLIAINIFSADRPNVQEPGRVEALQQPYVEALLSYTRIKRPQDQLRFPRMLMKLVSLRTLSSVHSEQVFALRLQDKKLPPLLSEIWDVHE
The experiment in a line: LXR agonists, Gal4 luciferase reporter, dose response, counter-screen for ssDAF-12 agonist project, cell-based, luminescence, HEK293, S. stercoralis campaign (AID 720737). Type of assay: functional. The following applies: read-out: IC50 (the source's name).

The nature of assay [3]: Dd2 malaria parasite growth inhibition potency – SYBR Green, dry powder samples, dose response (AID 1159566).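 Note: potency for growth inhibition with lower SYBR green DNA signal.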 Format: functional, cell-based.
Assay [4] is described as follows: P. falciparum Dd2 growth inhibitors, dose response, SYBR Green, cherry-picked samples (AID 1159567). Type of assay: functional, cell-based.
Assay [5] is described as follows: growth inhibition of yeast DHODH-expressing 3D7 parasites – SYBR Green, dry powder samples, dose response (AID 1159570).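 Note: parasite growth measured after 72 hours of compound exposure.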 Type of assay: functional, cell-based.
A short description of assay [6]: growth inhibition of PfATP4-mutant resistant parasites – NITD609-resistant line, SYBR Green, dry powder, dose response (AID 1159571).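 Note: parasites synchronized at ring stage by sorbitol before testing.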 Format: functional, cell-based.
Assay [7] concerns the target T2, RNA-editing ligase 1, mitochondrial (Trypanosoma brucei brucei, UniProt P86926).
T2 sequence (P86926 whole entry): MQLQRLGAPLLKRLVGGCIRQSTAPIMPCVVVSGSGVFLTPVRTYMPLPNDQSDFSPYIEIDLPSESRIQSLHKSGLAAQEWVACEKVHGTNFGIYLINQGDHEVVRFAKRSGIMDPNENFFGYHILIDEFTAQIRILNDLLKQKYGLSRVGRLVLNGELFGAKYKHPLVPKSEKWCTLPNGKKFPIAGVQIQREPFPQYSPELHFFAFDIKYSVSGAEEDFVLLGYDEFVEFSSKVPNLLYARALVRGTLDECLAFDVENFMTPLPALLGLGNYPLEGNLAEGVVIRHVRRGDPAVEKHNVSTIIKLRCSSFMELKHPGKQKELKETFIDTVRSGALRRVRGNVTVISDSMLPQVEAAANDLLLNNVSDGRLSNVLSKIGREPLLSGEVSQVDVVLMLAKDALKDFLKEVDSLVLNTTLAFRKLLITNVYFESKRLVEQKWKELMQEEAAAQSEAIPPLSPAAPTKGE
Briefly: inhibition of trypanosome RNA editing ligase – biochemical, fluorescence, Trypanosoma brucei, dose response (AID 1117295). Type of assay: functional.

The target of assay [8] is T3, Microphthalmia-associated transcription factor (Homo sapiens, UniProt O75030).
T3 sequence (O75030 whole entry): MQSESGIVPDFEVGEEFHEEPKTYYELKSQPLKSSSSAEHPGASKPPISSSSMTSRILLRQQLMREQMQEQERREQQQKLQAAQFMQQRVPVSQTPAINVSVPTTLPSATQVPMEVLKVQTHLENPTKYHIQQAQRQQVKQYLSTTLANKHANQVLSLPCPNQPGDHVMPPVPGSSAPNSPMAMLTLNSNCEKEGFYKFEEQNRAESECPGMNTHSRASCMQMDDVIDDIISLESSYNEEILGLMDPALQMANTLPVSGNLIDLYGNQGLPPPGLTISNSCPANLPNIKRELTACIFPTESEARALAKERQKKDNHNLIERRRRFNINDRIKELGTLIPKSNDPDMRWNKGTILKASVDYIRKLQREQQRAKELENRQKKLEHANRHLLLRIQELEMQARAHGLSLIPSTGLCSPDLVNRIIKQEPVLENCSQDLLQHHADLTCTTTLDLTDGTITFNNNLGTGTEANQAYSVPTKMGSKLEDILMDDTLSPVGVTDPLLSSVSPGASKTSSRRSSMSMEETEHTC
Briefly: reducers of TRPM1 reporter luminescence, concentration series – cell-based, SK-MEL-5, cherry-picked, set 3, MITF inhibitor project, dose response (AID 493073).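 Note: SK-MEL-5 melanoma cells with luciferase driven by the MITF target TRPM1 promoter.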 Format: functional.

Assay [9] addresses T4, Bcl-2-related protein A1 (Mus musculus, UniProt Q07440).
T4 sequence (Q07440 whole entry): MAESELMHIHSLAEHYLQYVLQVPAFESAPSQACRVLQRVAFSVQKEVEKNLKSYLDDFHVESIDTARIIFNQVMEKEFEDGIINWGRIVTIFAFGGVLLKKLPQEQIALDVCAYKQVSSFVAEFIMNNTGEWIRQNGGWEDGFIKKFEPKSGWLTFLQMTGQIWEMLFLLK
The experiment in a line: small-molecule antagonists of Bfl-1/BH3 interaction – biochemical, TR-FRET, mouse Bfl-1, confirmation (AID 621).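 Note: TR-FRET binding of GST-Bfl-1 to FITC-labelled Bid peptide via terbium antibody.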

The target in assay [10] is Glyceraldehyde-3-phosphate dehydrogenase (Homo sapiens, UniProt P04406).
The target in assay [11] is T4, Bcl-2-related protein A1. The experiment in a line: Bfl-1 binding inhibitors, SAR follow-up, biochemical, fluorescence polarization (AID 1070).
Assay [12] can be described thus: NIH-3T3 fibroblast cytotoxicity, dose response, cytotoxicity control, cell-based, fluorescence, Alamar Blue, secondary assay (AID 2327).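 Note: NIH-3T3 mouse fibroblasts cultured with fluconazole at 8 µg/mL.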 Type of assay: functional.
Assay [13] is described as follows: fluconazole-exposed Candida albicans growth modulators – fluorescence, retest, confirmation (AID 2467). Type of assay: functional, cell-based.
Assay [14] concerns the target T5, Mannose-6-phosphate isomerase (Homo sapiens, UniProt P34949).
T5 sequence (P34949 whole entry): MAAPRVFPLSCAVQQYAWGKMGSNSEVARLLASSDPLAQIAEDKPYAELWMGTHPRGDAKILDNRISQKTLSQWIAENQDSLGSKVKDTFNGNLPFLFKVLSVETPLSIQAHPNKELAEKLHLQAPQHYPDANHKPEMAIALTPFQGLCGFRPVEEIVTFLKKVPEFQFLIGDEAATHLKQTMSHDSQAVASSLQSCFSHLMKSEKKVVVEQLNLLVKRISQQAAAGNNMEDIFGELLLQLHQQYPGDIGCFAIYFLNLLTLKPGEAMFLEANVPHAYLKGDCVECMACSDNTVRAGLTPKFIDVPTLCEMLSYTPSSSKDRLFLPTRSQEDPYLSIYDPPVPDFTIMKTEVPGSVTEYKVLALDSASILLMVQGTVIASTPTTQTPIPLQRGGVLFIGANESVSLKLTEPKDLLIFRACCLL
The experiment in a line: MPI inhibition at elevated mannose 6-phosphate – biochemical, fluorescence intensity, high mannose 6-phosphate, primary screen (AID 1220).

Assay [15] is described as follows: cells. Type of assay: functional, cell-based.
Assay [16] can be described thus: cells. Type of assay: functional, cell-based. This is another data set of the same source.
Assay [17] deals with T6, Trace amine-associated receptor 1 (Homo sapiens, UniProt Q96RJ0).
T6 sequence (Q96RJ0 whole entry): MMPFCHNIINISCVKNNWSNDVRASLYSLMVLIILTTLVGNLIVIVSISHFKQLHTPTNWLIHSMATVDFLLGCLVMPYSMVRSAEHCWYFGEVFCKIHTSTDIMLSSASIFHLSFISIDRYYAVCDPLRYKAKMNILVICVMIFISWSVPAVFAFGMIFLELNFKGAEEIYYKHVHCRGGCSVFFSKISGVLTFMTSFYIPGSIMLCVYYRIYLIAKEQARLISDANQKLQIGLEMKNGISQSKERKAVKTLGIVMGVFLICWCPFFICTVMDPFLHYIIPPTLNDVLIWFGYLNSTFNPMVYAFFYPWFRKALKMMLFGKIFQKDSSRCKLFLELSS
The experiment in a line: Fluorescence-based cell-based high throughput dose response assay to identify agonists of the human trace amine associated receptor 1 (TAAR1). Format: functional.

Assay [18] deals with T6, Trace amine-associated receptor 1. Briefly: Counterscreen for agonists of the human trace amine associated receptor 1 (hTAAR1): Fluorescence-based cell-based high throughput dose response assay to identify hTAAR1 agonist that also desensitize TAAR1 receptor response. Type of assay: functional.
In another assay the target is Paired box protein Pax-8 (Homo sapiens, UniProt Q06710). Briefly: PAX8 transcriptional activity inhibition in RMG-I – RMG-I cells, luciferase, cherry-pick, dose response (AID 687027).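 Note: luciferase reporter driven by Pax8 target thyroperoxidase promoter measured by SteadyGlo luminescence.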 Type of assay: functional, cell-based.
The nature of assay [19]: OVCAR-3 cell viability loss – plate reader, dry powder samples, PAX8 inhibitor project, dose response (AID 743044). Type of assay: functional, cell-based.

Sequence of Glyceraldehyde-3-phosphate dehydrogenase (P04406 whole entry): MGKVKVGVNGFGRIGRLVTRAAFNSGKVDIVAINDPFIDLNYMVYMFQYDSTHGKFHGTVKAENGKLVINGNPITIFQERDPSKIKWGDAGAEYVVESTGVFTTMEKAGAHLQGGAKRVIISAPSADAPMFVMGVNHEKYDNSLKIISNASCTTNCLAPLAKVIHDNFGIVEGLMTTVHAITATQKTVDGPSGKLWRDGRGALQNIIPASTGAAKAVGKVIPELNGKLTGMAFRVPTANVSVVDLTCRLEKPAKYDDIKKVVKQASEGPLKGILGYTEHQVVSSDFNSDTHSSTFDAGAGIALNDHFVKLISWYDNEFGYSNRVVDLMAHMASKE
Sequence of Paired box protein Pax-8 (Q06710 whole entry): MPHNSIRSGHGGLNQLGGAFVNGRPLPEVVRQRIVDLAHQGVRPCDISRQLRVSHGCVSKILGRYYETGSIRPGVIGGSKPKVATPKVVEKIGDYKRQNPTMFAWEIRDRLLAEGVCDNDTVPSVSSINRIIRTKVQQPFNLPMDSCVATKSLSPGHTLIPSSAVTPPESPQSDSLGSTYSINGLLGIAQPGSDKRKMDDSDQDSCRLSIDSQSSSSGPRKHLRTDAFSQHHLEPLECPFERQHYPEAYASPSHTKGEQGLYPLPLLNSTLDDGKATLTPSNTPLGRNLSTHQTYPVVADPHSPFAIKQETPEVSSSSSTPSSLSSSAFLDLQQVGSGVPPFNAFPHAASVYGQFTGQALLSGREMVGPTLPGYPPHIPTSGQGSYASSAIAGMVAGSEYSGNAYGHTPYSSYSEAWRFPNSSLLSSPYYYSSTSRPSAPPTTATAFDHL

With `Cn1cnc(NCc2ccccc2)c1[N+](=O)[O-]`, the IC50 in assay [1] is > 67.5 µM (inactive). The EC50 in [2] is > 67.5 µM (inactive).

`O=C(c1ccncc1)N1CC(=O)N2[C@H](C1)[C@@H](c1ccc(-c3cccnc3)cc1)[C@@H]2CO`: the AC50 in assay [3] was 0.112 µM (active); in assay [4], < 0.3 µM (active); in assay [5], 0.188 µM (active); in [6] it was 0.161 µM (active).

Regarding `COc1ccc2nc(C)cc(NCc3cccc(C(F)(F)F)c3)c2c1`, the IC50 in assay [7] was > 96.6 µM (inactive). Also, the AC50 in assay [8] is 18.2 µM (active).

For `CC1CCN(C2CC(=O)N(c3ccc(Cl)c(Cl)c3)C2=O)CC1` (stereo unspecified), the IC50 (at Bcl-2-related protein A1 [9]; in assay [10]; on Bcl-2-related protein A1 [11]) was > 100 µM (not active) each time.

In the case of `CN1CCC(N[C@@H](Cc2ccccc2)C(=O)NCC(c2ccccc2)c2ccccc2)(C(=O)NC2CCCCC2)CC1`, the IC50 in assay [7] is > 96.6 µM (inactive).

For the compound `O=C1C(Cl)=C(Cl)C(=O)N1c1ccc(Cl)nc1`, the IC50 at Bcl-2-related protein A1 [9] is 33.8 µM (active); in assay [10], > 100 µM (not active); on Bcl-2-related protein A1 [11] it was > 100 µM (not active).

With `Cc1cccc(NC(S)=NNC(=O)c2cc3c(s2)CCC(C)C3)c1C` (stereo unspecified), in assay [1], the IC50 was > 67.5 µM (inactive). The figures for the EC50 in assay [12], in assay [2] and in assay [13] were > 150 µM (inactive), > 67.5 µM (inactive) and > 38 µM (not active), respectively.

In the case of `CC1CCCN(C(=S)SCC(=O)c2cc(Br)cc(Br)c2O)C1` (stereo unspecified), the IC50 is > 50 µM (not active) in [14], > 29.9 µM (inactive) in “cells [16]” and 4.68 µM (active) in assay [18]. Also, the EC50 in “cells [15]” was > 29.9 µM (inactive); in assay [17], 0.732 µM (active).

For the compound `C[C@@H]1CCCCO[C@@H](CN(C)Cc2ccc(C(F)(F)F)cc2)[C@H](C)CN([C@@H](C)CO)C(=O)c2cc(NC(=O)Nc3ccc(F)cc3)ccc2O1`, the AC50 was 3.37 µM (active) at Paired box protein Pax-8 and 45.7 µM (active) in assay [19].
